This passage reports Ki and analgesic effect results from patent US6013809A, “Substituted heterocyclic benzocycloalkenes and the use thereof as substances having an analgesic effect” (Gruenenthal GmbH, priority 1997, dated 2000).

Structures can show the parent of a compound that is named as a salt. Where two headings read alike, the source gives them in different places.

Assay [1] concerns the target T1, δ-opiate receptor (Rattus norvegicus, UniProt P33533).
T1 construct: freshly prepared rat brain was homogenised in 50 mmoles/l Tris-HCl (pH 7.4); from tissue; host or cells: rat brain without cerebellum, pons and medulla oblongata, male Wistar rats; membrane homogenate
Briefly: δ-opiate receptor binding, displacement of (^3H)-2-D-Ala-deltorphin II on rat brain homogenates. Also on record: species or system rat (male Wistar rats). Here is the method: Investigations for determining the affinity of compounds of formula I according to the invention for the δ-opiate receptor, which is a crucial prerequisite for analgesic properties, were performed on […] homogenates (rat brain homogenates, without the cerebellum, pons and medulla oblongata, from male Wistar rats). Selected compounds of formula I were used for the detection of δ-opiate receptor properties.
For this purpose, freshly prepared rat brain was homogenised in 50 mmoles/l Tris-HCl (pH 7.4) whilst cooling in ice, and was centrifuged for 10 minutes at 5000 g. After decanting and discarding the supernatant liquor, and renewed take-up and homogenisation of the membrane sediment in 50 mmoles/l Tris-HCl (pH 7.4), the homogenate was subsequently centrifuged for 20 minutes at 20,000 g and 4° C. This washing step was repeated once more. Thereafter, the supernatant liquor was decanted and the membrane sediment was homogenised in cold 50 mmoles/l Tris-HCl, 20% glycerol (w/v), 0.01% bacitracin (w/v) (pH 7.4) and was frozen in aliquots until testing was performed.
For the receptor binding tests, the aliquots were thawed out and diluted 1:10 with the binding test buffer.
The buffer used in the binding test comprised 50 mmoles/l Tris-HCl, 5 mmoles/l MgCl (pH 7.4), supplemented with 0.1% (w/v) bovine serum albumin. […] (^3 H)-2-D-Ala-deltorphin II was used as the radioactive ligand. The proportion of non-specific binding was determined in the presence of 10 mmoles/l naloxon.
The compounds according to the invention were added to further batches in series of concentrations and the displacement of the radioactive ligand from its specific binding site was determined. The respective triple batches were incubated for 90 minutes at 37° C. and were subsequently harvested by means of filtration through glass fibre filters (GF/B) for the determination of the radioactive ligand bound to the membrane homogenate. The radioactivity of the glass fibre filter discs was measured in a β-counter after adding a scintillator.
The affinity of the compounds according to the invention for the δ-opiate receptor was calculated as the IC50 according to the law of mass action by means of nonlinear regression. The K values in Table 1 are given as the mean value±the standard deviation from three mutually independent tests.

Assay [2] deals with cancer patients. Conditions: intrathecal, cancer patients on whom morphine no longer had an analgesic effect; cited from earlier work.
The mark [3] stands for this setting: 90 minutes at 37° C., pH 7.4, mean value ± standard deviation from three independent tests, read-out: δ-opiate receptor binding Ki.
The mark [4] stands for this setting: meaning of the second figure not stated, read-out: δ-opiate receptor binding Ki, second unlabelled figure printed behind the mean ± standard deviation.

T1 sequence (P33533 whole entry): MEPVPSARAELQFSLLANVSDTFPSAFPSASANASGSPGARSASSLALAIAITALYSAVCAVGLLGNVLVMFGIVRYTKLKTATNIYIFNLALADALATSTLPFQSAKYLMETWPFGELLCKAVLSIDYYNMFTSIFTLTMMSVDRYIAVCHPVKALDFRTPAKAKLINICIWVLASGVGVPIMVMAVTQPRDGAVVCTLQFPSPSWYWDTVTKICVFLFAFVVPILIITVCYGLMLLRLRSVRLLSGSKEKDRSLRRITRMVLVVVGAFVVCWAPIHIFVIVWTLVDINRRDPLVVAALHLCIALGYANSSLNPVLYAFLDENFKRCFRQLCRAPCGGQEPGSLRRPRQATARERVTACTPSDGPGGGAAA

As for `COc1ccc2c(c1)SCCC(CN(C)C)=C2c1cccc(O)c1` [Example 2h, 3-(4-dimethylaminomethyl-8-methoxy-2,3-dihydrobenzo[b]thiepin-5-yl)-phenolhydrochloride], the Ki was 2.67 nM in assay [1] (setting [3]) and 1.76 nM in assay [1] (setting [4]).
On to `CN(C)CC1=C(c2cccc(O)c2)c2ccc3ccccc3c2OC1` [Example 2b, 3-(3-dimethylaminomethyl-2H-benzo[b]chromen-4-yl-phenol hydrochloride], for which, in assay [1] (setting [3]), the Ki worked out at 348 ± 65 nM.
On to `CN(C)CC1=C(c2cccc(O)c2)c2ccc3c(c2OC1)OCCO3` [Example 2d, 3-(7-dimethylaminomethyl-2,3-dihydro-6H-1,4,5,-trioxa-phenanthren-8-yl)-phenol hydrochloride], for which the Ki in assay [1] (setting [3]) came to 18.4 ± 1.6 nM.
Take “D-alanine^2 -D-leucine^5 enkeplialin [DADL]”: the analgesic effect entry in assay [2] is listed as “long-lasting analgesic effect”.
Take `CN(C)CC1=C(c2cccc(O)c2)c2ccccc2SCC1` [Example 1, 3-(4-dimethylaminomethyl-2,3-dihydro-benzo[b]thiepin-5-yl)-phenol hydrochloride]: in assay [1] (setting [3]), the Ki was 10.2 ± 4.5 nM.
With `COc1ccc2c(c1)[S+]([O-])CCC(CN(C)C)=C2c1cccc(O)c1` (centres unmarked) [Example 9a, 3-(4-dimethylaminomethyl-8-methoxy-1-oxo-2,3-dihydro-1H-1-2-4-benzo[b]thiepin-5-yl)-phenol hydrochloride], in assay [1] (setting [3]), the Ki was determined as 1.75 nM.
For `CN(C)CC1=C(c2cccc(O)c2)c2ccc(O)cc2SCC1` [Example 11b, 4-dimethylaminomethyl-5-(3-hydroxy-phenyl)-2,3-dihydro-benzo[b]thiepin-8-ol hydrochloride], the values for the Ki in assay [1] (setting [3]) and in assay [1] (setting [4]) were 6.43 nM and 6.71 nM, respectively.
Take `CN(C)CC1=C(c2cccc(O)c2)c2ccccc2SC1` [Example 5, 3-(3-dimethylaminomethyl-2H-thiochromen-4-yl)-phenol hydrochloride]: the Ki in assay [1] (setting [3]) is 68.2 ± 10.1 nM.
For `CN(C)CC1=C(c2cccc(O)c2)c2ccccc2[S+]([O-])CC1` (racemic) [Example 3, 3-(4-dimethylaminomethyl-1-oxo-2,3-dihydro-1H-1λ^4-benzo[b]thiepin-5-yl)-phenol hydrochloride], the Ki in assay [1] (setting [3]) is 2.1 ± 0.13 nM.
Take `COc1ccc2c(c1)OCCC(CN(C)C)=C2c1cccc(O)c1` [Example 2g, 3-(4-dimethylaminomethyl-8-methoxy-2,3-dihydrobenzo[b]oxepin-5-yl)-phenol hydrochloride]: the Ki stood at 6.19 nM in assay [1] (setting [3]) and 6.01 nM in assay [1] (setting [4]).
In the case of `CN(C)CC1=C(c2cccc(O)c2)c2ccccc2OC1` [Example 7, 3-(3-dimethylaminomethyl-2H-chromen-4-yl)-phenol hydrochloride], in assay [1] (setting [3]), the Ki was 68.4 ± 8.4 nM.
For the compound `CN(C)CC1=C(c2cccc(O)c2)c2ccccc2OCC1` [Example 2e, 3-(4-dimethylaminomethyl-2,3-dihydro-benzo[b]oxepin-5-yl)-phenol hydrochloride], the Ki in assay [1] (setting [3]) turned out to be 8.5 ± 3 nM.
The same measure, in the same setting: in the case of `CN(C)CC1=C(c2cccc(O)c2)c2cc(O)ccc2OC1(C)C` [Example 8, 3-dimethylaminomethyl-4-(3-hydroxy-phenyl)-2,2-di-methyl-2H-chromen-6-ol hydrochloride] it was 393 ± 46 nM.
On to `CN(C)CC1=C(c2cccc(O)c2)c2ccc3ccccc3c2SC1` [Example 2c, 3-(2-dimethylaminomethyl-3H-4-thiaphenanthren-1-yl)-phenol hydrochloride], for which the Ki in assay [1] (setting [3]) stood at 137 ± 13 nM.
